Reference: patent US20250282726A1, “5-BROMO-2-HYDROXY-N'-[(1E)-1-(PYRIDIN-2-YL) ETHYLIDENE]BENZOHYDRAZIDE AS AN ANTI-CANCER AND ANTIMICROBIAL AGENT” (KING SAUD UNIVERSITY, priority 2024, published 2025)

Key:
Format in all cases: cell-based
[1] = system: Trichoderma harzianum (carsm-2); assay: Antimicrobial study, diameter of inhibition zone; conditions: Fungi
Excerpt: (§1) Two gram-positive Staphylococcus aureus (cars-2) and Bacillus Megnaterium, two gram-negative Escherichia coli (carsgn-2) and Salmonella Typhi (JCM-1652) bacteria, and two fungal strains Trichoderma harzianum (carsm-2) and Aspergillus niger (carsm-3) were used in this study.

[2] = system: Aspergillus niger (carsm-3); assay: Antimicrobial study, diameter of inhibition zone; conditions: Fungi
Excerpt: as §1

Bacillus Megnaterium = assay: Antimicrobial study, diameter of inhibition zone; conditions: for Diameter of inhibition zones, B. megnaterium: Gram (+) bacteria
Description: (§2) Initially, compound L was tested against some Gram-negative and Gram-positive bacteria and the fungus strain.
as §1

[3] = system: Escherichia coli (carsgn-2); assay: Antimicrobial study, diameter of inhibition zone; conditions: for Diameter of inhibition zones, E. coli: Gram (−) bacteria
Description: as §2, §1

[4] = system: Staphylococcus aureus (cars-2); assay: Antimicrobial study, diameter of inhibition zone; conditions: for Diameter of inhibition zones, S. aureus: Gram (+) bacteria
Description: as §2, §1

[5] = system: Salmonella Typhi (JCM-1652); assay: Antimicrobial study, diameter of inhibition zone; conditions: for Diameter of inhibition zones, S. typhi: Gram (−) bacteria
Description: as §2, §1

[6] = system: hepatocellular carcinoma (HepG2); assay: MTT in vitro cytotoxicity assay; conditions: Homo sapiens, read-out: % cell viability
Description: (§3) Two human cancer cell lines were utilized in the cytotoxicity assay. They were lung cancer (A549) and hepatocellular carcinoma (HepG2). A549 and HepG2 cells were cultured in a DMEM medium supplemented with 10% Fetal Bovine Serum (FBS), and 1% Antibiotic-Antimycotic at 37° C., with 5% CO2 in a 75 cm^2 tissue culture flask.
(§4) The conversion of yellow MTT to purple formazan crystals by mitochondrial dehydrogenase of viable cell enzymes was used to assess the magnitude of cellular cytotoxicity exerted by different concentrations of L as explained earlier Kazi et al. 2023 and modified by Kumar et al. 2022. Briefly, cancer cells were plated in 96-well plates (2×10^3 cells/well) in full cell growth medium and incubated for 24 h at 37° C. under a humidified atmosphere of 5% CO2. The cell medium was then replaced by a cell growth medium containing 5% FBS (DMEM medium), containing different concentrations of L. This experiment was performed in two batches. In the first batch, concentrations of L were 1.95, 3.9, 7.8, 15.6, 31.25, 62.5, 125 and 250 μg/ml with control (without any treatment). In the second batch, concentrations of L were 0.078, 0.156, 0.312, 0.625, 1.25, 2.5, 5.0, and 10.0 μg/mL with control (without any treatment). After 72 hours of incubation, medium in all test and control wells was substituted by 100 µL/well of MTT solution (0.5 mg/mL, in PBS) and incubated for a further 3 h at 37° C. Afterwards, the MTT solution was replaced with 100 μL isopropanol/well to dissolve the purple formazan crystals formed at the bottom of the wells, with shaking for at least 2 h at room temperature in dark. Subsequently, the color intensity in the wells was measured at 549 nm with a Bio-Tek microplate reader (ELX 800; Bio-Tek Instruments, Winooski, VT, USA). The results were analyzed in triplicates and the viability percentage was calculated. The data are presented as the percentages of viable cells in the test wells compared to those of the control group. The following equation was used to calculate the cell viability: […]
(§5) Liver and lung cancer cell lines were used to observe the antiproliferative effects of different concentrations of L as a growth-inhibiting study utilizing MTT-based viability assays. The MTT assay is based on mitochondrial activity. […] The results of both batches are admirable and far better than earlier reported publications. Therefore, we repeated this experiment with lung cancer cell lines and found almost similar results (FIGS. 9 and 10) as were with liver cancer cells.

lung cancer (A549) = assay: MTT in vitro cytotoxicity assay; conditions: Homo sapiens, lung cancer cells, MTT 72 h
Description: as §3, §4, §5

C[C@@H]1[C@H](O)[C@@H](C)/C=C/C=C/C=C/C=C/C=C/C=C/C=C/[C@H](O[C@@H]2O[C@H](C)[C@@H](O)[C@H](N)[C@@H]2O)C[C@@H]2O[C@](O)(C[C@@H](O)C[C@@H](O)[C@H](O)CC[C@@H](O)C[C@@H](O)CC(=O)O[C@H]1C)C[C@H](O)[C@H]2C(=O)O [Amphotericin-B, reference compound]
Diameter of inhibition zones, T. harzianum [1]: 17.0 mm
Diameter of inhibition zones, A. niger [2]: 8.0 mm

CO/N=C(\C(=O)N[C@@H]1C(=O)N2C(C(=O)O)=C(CSc3nc(=O)c(=O)[nH]n3C)CS[C@H]12)c1csc(N)n1 [Ceftriaxone, reference compound]
Diameter of inhibition zones, B. megnaterium (Bacillus Megnaterium): 50.0 mm
Diameter of inhibition zones, E. coli [3]: 38.0 mm
Diameter of inhibition zones, S. aureus [4]: 40.0 mm
Diameter of inhibition zones, S. typhi [5]: 44.0 mm

C/C(=N\NC(=O)c1cc(Br)ccc1O)c1ccccn1 [Compound L, 5-bromo-2-hydroxy-N′-[(1E)-1-(pyridin-2-yl)ethylidene]benzohydrazide]
Diameter of inhibition zones, T. harzianum [1]: 12 mm
Diameter of inhibition zones, A. niger [2]: 12 mm
viability at 0.078 µg/mL ([6]; HepG2, 72 h): 34.4%
viability at 1.95 µg/mL ([6]; HepG2, 72 h): 14.8%
viability at 0.156 µg/mL ([6]; HepG2, liver cancer cells, 0.156 μg/mL, MTT 72 h, FIG. 2): 24.4%
viability at 0.312 µg/mL ([6]; HepG2, liver cancer cells, 0.312 μg/mL, MTT 72 h, FIG. 2): 28%
viability at 0.625 µg/mL ([6]; HepG2, liver cancer cells, 0.625 μg/mL, MTT 72 h, FIG. 2): 20.3%
viability at 1.25 µg/mL ([6]; HepG2, liver cancer cells, 1.25 μg/mL, MTT 72 h, FIG. 2): 20.2%
viability at 2.5 µg/mL ([6]; HepG2, liver cancer cells, 2.5 μg/mL, MTT 72 h, FIG. 2): 12.7%
viability at 3.9 µg/mL ([6]; HepG2, liver cancer cells, 3.9 μg/mL, MTT 72 h, FIG. 3): 12.2%
viability at 5 µg/mL ([6]; HepG2, liver cancer cells, 5.0 μg/mL, MTT 72 h, FIG. 2): 10.9%
viability at 7.8 µg/mL ([6]; HepG2, liver cancer cells, 7.8 μg/mL, MTT 72 h, FIG. 3): 9.57%
viability at 10 µg/mL ([6]; HepG2, liver cancer cells, 10.0 μg/mL, MTT 72 h, FIG. 2): 10.4%
viability at 15.6 µg/mL ([6]; HepG2, liver cancer cells, 15.6 μg/mL, MTT 72 h, FIG. 3): 8.96%
viability at 31.25 µg/mL ([6]; HepG2, liver cancer cells, 31.25 μg/mL, MTT 72 h, FIG. 3): 9.09%
viability at 62.5 µg/mL ([6]; HepG2, liver cancer cells, 62.5 μg/mL, MTT 72 h, FIG. 3): 8.86%
viability at 125 µg/mL ([6]; HepG2, liver cancer cells, 125 μg/mL, MTT 72 h, FIG. 3): 9.34%
viability at 250 µg/mL ([6]; HepG2, liver cancer cells, 250 μg/mL, MTT 72 h, FIG. 3): 9.38%
viability at 0.078 µg/mL (lung cancer (A549); 0.078 μg/mL, FIG. 4, read-out: % cell viability): 18.6%
viability at 0.156 µg/mL (lung cancer (A549); 0.156 μg/mL, FIG. 4, read-out: % cell viability): 13.2%
viability at 0.312 µg/mL (lung cancer (A549); 0.312 μg/mL, FIG. 4, read-out: % cell viability): 12.8%
viability at 0.625 µg/mL (lung cancer (A549); 0.625 μg/mL, FIG. 4, read-out: % cell viability): 12.3%
viability at 1.25 µg/mL (lung cancer (A549); 1.25 μg/mL, FIG. 4, read-out: % cell viability): 12.1%
viability at 1.95 µg/mL (lung cancer (A549); 1.95 μg/mL, FIG. 5, read-out: % cell viability): 18%
viability at 2.5 µg/mL (lung cancer (A549); 2.5 μg/mL, FIG. 4, read-out: % cell viability): 11.7%
viability at 3.9 µg/mL (lung cancer (A549); 3.9 μg/mL, FIG. 5, read-out: % cell viability): 16.7%
viability at 5 µg/mL (lung cancer (A549); 5.0 μg/mL, FIG. 4, read-out: % cell viability): 11%
viability at 7.8 µg/mL (lung cancer (A549); 7.8 μg/mL, FIG. 5, read-out: % cell viability): 12.5%
viability at 10 µg/mL (lung cancer (A549); 10.0 μg/mL, FIG. 4, read-out: % cell viability): 11.1%
viability at 15.6 µg/mL (lung cancer (A549); 15.6 μg/mL, FIG. 5, read-out: % cell viability): 11.8%
viability at 31.25 µg/mL (lung cancer (A549); 31.25 μg/mL, FIG. 5, read-out: % cell viability): 11.7%
viability at 62.5 µg/mL (lung cancer (A549); 62.5 μg/mL, FIG. 5, read-out: % cell viability): 11.4%
viability at 125 µg/mL (lung cancer (A549); 125 μg/mL, FIG. 5, read-out: % cell viability): 11.6%
viability at 250 µg/mL (lung cancer (A549); 250 μg/mL, FIG. 5, read-out: % cell viability): 11.6%
Diameter of inhibition zone (Bacillus Megnaterium; Bacillus Megaterium): 20 mm
Diameter of inhibition zones, B. megnaterium (Bacillus Megnaterium): 20 mm
Diameter of inhibition zone ([3]; Escherichia coli): 17 mm
Diameter of inhibition zones, E. coli [3]: 17 mm
Diameter of inhibition zones, S. aureus [4]: 24 mm
Diameter of inhibition zone ([4]; Staphylococcus aureus): 24 mm
Diameter of inhibition zones, S. typhi [5]: 26 mm
Diameter of inhibition zone ([5]; Salmonella typhi): 26 mm
